Measured values from patent publication US20120142623A1, “Compositions And Methods For Predicting Inhibitors Of Protein Targets” (priority 2006, published 2012).
“And” between values parts separate entries of the source, which are not always exact repeats. Equal entries are not always repeated. Where two headings read alike, the source gives them in different places.

Key:
[1] = system: P. falciparum; conditions: Table 3 section B, high throughput screen [27, 28], cited from earlier work; for EC50: read-out: ED50 in 3D7
[2] = system: chloroquine-sensitive strain 3D7 of P. falciparum; assay: P. falciparum growth inhibition in culture, strain 3D7; format: cell-based, Plasmodium falciparum; conditions: for result of the 16 tested inhibitors in words (binding): summary of Table 5
[3] = system: chloroquine-resistant strain K1 of P. falciparum; assay: P. falciparum growth inhibition in culture, strain K1; format: cell-based, Plasmodium falciparum
[4] = molecular target: HSV protease; assay: Surface Plasmon Resonance, HSV protease; format: binding; conditions: SPR, FIG. 4
Description: (§1) Four inhibitors were evaluated; our top ranking one (TMPyP4) clearly binds to all three proteases as predicted. […] A third inhibitor, GW8510, predicted to bind fails (i.e., a misprediction). […] Our inhibitor prediction is completely consistent with the observed experimental data which is verified further by cell culture studies in FIG. 4 and compared to existing antiherpes drugs.

[5] = molecular target: CMV protease (Human cytomegalovirus, UniProt P16753); assay: Surface Plasmon Resonance, CMV protease; format: binding; set-up: herpes simplex virus (HSV) proteases (including HSV2, VZV, EBV, CMV, and KSHV); conditions: SPR, FIG. 4
Description: as §1

[6] = molecular target: KSHV protease (Human herpesvirus 8 type P, UniProt Q2HRB6); assay: Surface Plasmon Resonance, KSHV protease; format: binding; set-up: herpes simplex virus (HSV) proteases (including HSV2, VZV, EBV, CMV, and KSHV); conditions: SPR, FIG. 4
Description: as §1

[7] = system: HSV-1 strain F; assay: HSV-1 infection of Vero cells, virus titer; format: cell-based; conditions: FIG. 5 bottom right panel; virus not named
[8] = system: HIV-1 gp41 HR1 wild-type and mutants; conditions: cited from earlier work
[9] = Table 3 section A, mean of at least two measurements, read-out: ED50 in 3D7
[10] = Table 5, P. falciparum ED50 in 3D7 and K1
[11] = Table 5, read-out: ED50 (μM) in 3D7
[12] = Table 3 section A, mean of at least two measurements, read-out: ED50 in K1
[13] = Table 5, read-out: ED50 (μM) in K1
[14] = Plasmodium falciparum, 3D7, Table 3 section A, mean of at least two measurements, read-out: ED50 in 3D7
[15] = Plasmodium falciparum, 3D7, Table 5, read-out: ED50 (μM) in 3D7
[16] = Plasmodium falciparum, K1, Table 3 section A, mean of at least two measurements, read-out: ED50 in K1
[17] = Plasmodium falciparum, K1, Table 5, read-out: ED50 (μM) in K1

COc1ccc(CCN2CCC(Nc3nc4ccccc4n3Cc3ccc(F)cc3)CC2)cc1 [Astemizole]
% Inhibition at 10 μM in [1]: 97.6%

CC1(C)S[C@@H]2[C@H](NC(=O)[C@H](NC(=O)N3CCNC3=O)c3ccccc3)C(=O)N2[C@H]1C(=O)O [Azlocillin]
EC50 [1]: 1.5 µM

CN1CCCC1CCn1cc(C2=C(c3c[nH]c4ccccc34)C(=O)NC2=O)c2ccccc21 (centres unmarked) [Bisindolylmaleimide II]
EC50 [2, 9]: 1 to 10 µM
experimentally determined to work [2, 10]: N
EC50 [2, 11]: 1 to 10 µM
EC50 [3, 12]: 1 to 10 µM
EC50 [3, 13]: 1 to 10 µM

Cl.Cn1cc(C2=C(c3c4n(c5ccccc35)CCC(CN)C4)C(=O)NC2=O)c2ccccc21 (centres unmarked) [Bisindolylmaleimide X]
EC50 [2, 9]: 1 to 10 µM
experimentally determined to work [2, 10]: N
EC50 [2, 11]: 1 to 10 µM
EC50 [3, 12]: 1 to 10 µM
EC50 [3, 13]: 1 to 10 µM

Oc1ccc(Cc2nc3c(Cc4ccccc4)nc(-c4ccc(O)cc4)cn3c2O)cc1 [Coelenterazine]
EC50 [2, 14]: 10 to 40 µM
EC50 [2, 15]: 10 to 40 µM
experimentally determined to work [2, 10]: N
EC50 [3, 16]: 1 to 10 µM
EC50 [3, 17]: 1 to 10 µM

COc1cccc2c1C(=O)c1c(O)c3c(c(O)c1C2=O)C[C@@](O)(C(C)=O)C[C@@H]3O[C@H]1C[C@H](N)[C@H](O)[C@H](C)O1 [Daunorubicin]
EC50 [2, 14]: 0.13 µM
EC50 [2, 15]: 0.125 µM
experimentally determined to work [2, 10]: Y (Y—yes (<=1uM ED50))
result of the 16 tested inhibitors in words (binding) [2]: very strong binding
EC50 [3, 16]: < 1 µM
EC50 [3, 17]: < 1 µM
% Inhibition at 10 μM in [1]: 99.6%

CN1C[C@H](C(=O)N[C@]2(C)O[C@@]3(O)[C@@H]4CCCN4C(=O)[C@H](Cc4ccccc4)N3C2=O)C[C@@H]2c3cccc4[nH]cc(c34)C[C@H]21 [Dihydroergotamine]
% Inhibition at 10 μM in [1]: 88.1%
EC50 [1]: 4 µM and 3 µM

COc1cccc2c1C(=O)c1c(O)c3c(c(O)c1C2=O)C[C@@](O)(C(=O)CO)C[C@@H]3O[C@H]1C[C@H](N)[C@@H](O)[C@H](C)O1 [Epirubicin]
% Inhibition at 10 μM in [1]: 98.4%

CN([C@@H](Cc1ccc(OS(=O)(=O)c2cccc3cnccc23)cc1)C(=O)N1CCN(c2ccccc2)CC1)S(=O)(=O)c1cccc2cnccc12 [KN62]
EC50 [2, 9]: 0.69 µM
experimentally determined to work [2, 10]: Y (Y—yes (<=1uM ED50))
EC50 [2, 11]: 0.69 µM
result of the 16 tested inhibitors in words (binding) [2]: very strong binding
EC50 [3, 12]: < 1 µM
EC50 [3, 13]: < 1 µM

CN1C[C@H](CNC(=O)OCc2ccccc2)C[C@@H]2c3cccc4c3c(cn4C)C[C@H]21 [Metergoline]
% Inhibition at 10 μM in [1]: 85.9%
EC50 [1]: 5.4 µM

CN(Cc1cnc2nc(N)nc(N)c2n1)c1ccc(C(=O)N[C@@H](CCC(=O)O)C(=O)O)cc1 [Methotrexate]
% Inhibition at 10 μM in [1]: 98.4%
EC50 [1]: 0.05 µM

O=C1c2ccc3c4ccc5c6c(ccc(c7ccc(c2c37)C(=O)N1CCN1CCCCC1)c64)C(=O)N(CCN1CCCCC1)C5=O [PIPER]
EC50 [2, 9]: 10 to 40 µM
experimentally determined to work [2, 10]: N
EC50 [2, 11]: 10 to 40 µM
EC50 [3, 12]: 10 to 40 µM
EC50 [3, 13]: 10 to 40 µM

C=CC1=C(C)c2cc3[nH]c(cc4nc(cc5[nH]c(cc1n2)c(C)c5CCC(=O)O)C(CCC(=O)O)=C4C)c(C)c3C=C [Protoporphrin, Protoporphyrin IX]
EC50 [2, 14]: 10 to 40 µM
EC50 [2, 15]: 10 to 40 µM
experimentally determined to work [2, 10]: N
EC50 [3, 16]: 10 to 40 µM
EC50 [3, 17]: 10 to 40 µM

COc1ccc(C[C@H](N)C(=O)N[C@H]2[C@@H](O)[C@H](n3cnc4c(N(C)C)ncnc43)O[C@@H]2CO)cc1 [Puromycin]
% Inhibition at 10 μM in [1]: 98.9%

Cc1c(C(=O)c2cccc3ccccc23)c2cccc3c2n1[C@H](CN1CCOCC1)CO3 [R-(+)-WIN55212-2]
experimentally determined to work [2]: N
EC50 [2, 9]: 10 to 40 µM
EC50 [2, 11]: 10 to 40 µM
EC50 [3, 12]: 10 to 40 µM
EC50 [3, 13]: 10 to 40 µM

O=C(c1ccc(OCCN2CCCCC2)cc1)c1c(-c2ccc(O)cc2)sc2cc(O)ccc12 [Raloxifene]
% Inhibition at 10 μM in [1]: 97.1%
EC50 [1]: < 0.5 µM

Cc1nc2n(c(=O)c1CCN1CCC(c3noc4cc(F)ccc34)CC1)CCCC2 [Risperidone]
% Inhibition at 10 μM in [1]: 67.5%

CC[C@H](CO)Nc1nc(NCc2ccccc2)c2ncn(C(C)C)c2n1 [Roscovitine]
experimentally determined to work [2, 10]: N

Cc1ccc(NC(=O)c2ccc(CN3CCN(C)CC3)cc2)cc1Nc1nccc(-c2cccnc2)n1 [STI-571, Imatinib]
result of the 16 tested inhibitors in words (binding) [2]: moderate binding

O=CN1CCN(c2ccc(/C=C3\C(=O)Nc4ccccc43)cc2)CC1 [SU4984]
EC50 [2, 9]: > 40 µM
experimentally determined to work [2, 10]: N

Cc1c[nH]c(/C=C2\C(=O)Nc3ccccc32)c1CCC(=O)O [SU5402]
EC50 [2, 9]: > 40 µM
experimentally determined to work [2, 10]: N

Cc1cc(C)c(/C=C2\C(=O)Nc3ccc(Cl)cc32)[nH]1 [SU5614]
experimentally determined to work [2, 10]: N

CN(C)S(=O)(=O)c1ccc2c(c1)/C(=C/c1cc3c([nH]1)CCCC3)C(=O)N2 [SU6656]
EC50 [2, 9]: > 40 µM
experimentally determined to work [2, 10]: N
EC50 [2, 11]: 10 µM
disassociation constant (Kd), HSV protease [4]: verified to not bind
disassociation constant (Kd), CMV protease [5]: verified to not bind
disassociation constant (Kd), KSHV protease [6]: verified to not bind

O=C(O)CCC(=O)Nc1ccc(S(=O)(=O)Nc2nccs2)cc1 [Succinylsulfathiazole]
EC50 [2, 14]: > 40 µM
EC50 [2, 15]: > 40 µM
experimentally determined to work [2, 10]: N
EC50 [3, 16]: > 40 µM
EC50 [3, 17]: > 40 µM

O=C(O)c1cc(/N=N/c2ccc(S(=O)(=O)Nc3ccccn3)cc2)ccc1O [Sulfasalazine]
EC50 [2, 14]: > 40 µM
EC50 [2, 15]: > 40 µM
experimentally determined to work [2, 10]: N
EC50 [3, 16]: > 40 µM
EC50 [3, 17]: > 40 µM

CC[C@@]1(O)C(=O)OCc2c1cc1n(c2=O)Cc2cc3c(CN(C)C)c(O)ccc3nc2-1 [Topotecan]
% Inhibition at 10 μM in [1]: 80.1%

C[C@]12C=CC(=O)C=C1CC[C@@H]1C2=CC[C@]2(C)[C@@H](C(=O)CN3CCN(c4cc(N5CCCC5)nc(N5CCCC5)n4)CC3)CC[C@@H]12.O=C(O)/C=C\C(=O)O [U-74389G]
EC50 [2, 9]: 0.83 µM
experimentally determined to work [2, 10]: Y (Y—yes (<=1uM ED50))
EC50 [2, 11]: 0.825 µM
result of the 16 tested inhibitors in words (binding) [2]: very strong binding
EC50 [3, 12]: < 1 µM
EC50 [3, 13]: < 1 µM

CC[C@]1(O)C[C@@H]2CN(CCc3c([nH]c4ccccc34)[C@@](C(=O)OC)(c3cc4c(cc3OC)N(C)[C@H]3[C@@](O)(C(N)=O)[C@H](O)[C@]5(CC)C=CCN6CC[C@]43[C@@H]65)C2)C1 [Vindesine]
% Inhibition at 10 μM in [1]: 81.9%

Nc1nc2c(ncn2COCCO)c(=O)[nH]1 [acylovir]
effectiveness after passage for several cycles with both acylovir and TMPyP4 [7]: complete resistance to acylovir occurs

Bisindolylmaleimide VII
EC50 [2, 9]: 1 to 10 µM
experimentally determined to work [2, 10]: N
EC50 [2, 11]: 1 to 10 µM
EC50 [3, 12]: 1 to 10 µM
EC50 [3, 13]: 1 to 10 µM

enfuvirtide
EC50 ([8]; HR1 Wild-type): 0.012 µg/mL
EC50 ([8]; HR1 mutation N42T + N43K): 0.388 µg/mL
EC50 ([8]; HR1 mutation N42T + N43S): 0.727 µg/mL
EC50 ([8]; HR1 mutation N42T): 0.045 µg/mL
EC50 ([8]; HR1 mutation V38A + N42D): 1.685 µg/mL
EC50 ([8]; HR1 mutation V38A + N42T): 1.782 µg/mL
EC50 ([8]; HR1 mutation V38A): 0.188 µg/mL
EC50 ([8]; HR1 mutation V38E + N42S): 6.156 µg/mL
